Data from patent US20260166016A1, “GPR139 RECEPTOR AGONIST, PREPARATION METHOD THEREFOR, AND APPLICATION THEREOF” (NEUBO APPTECH CO., LTD., priority 2022, published 2026).

System: acutely restrained mice
Experiment: Pentobarbital sodium sleep test in mice under acute restraint stress
Format: in vivo, mouse
Details: male C57BL/6J mice; gavage of 0.1, 0.5, 2.5 mg/mL solutions at 0.1 mL/10 g; 30 minutes later acute restraint for 3 hours; pentobarbital sodium 40 mg/kg i.p.; dose-dependent; FIG. 2
Description: Mouse: Male C57BL/6J; 8 weeks old; Weight: 20-25 g; Quantity: 31 pieces
Group 1, acute restraint sleeping placebo group, 7 mice, fed with regular care.
Group 2, acute restraint sleeping+low-dose of compound NRB181 group, 8 mice. The mice were fasted and deprived of water during the acute restraint period, and were kept normally at other times.
Group 3, acute restraint sleeping+moderate-dose of compound NRB181 group, 8 mice. The mice were fasted and deprived of water during the acute restraint period, and were kept normally at other times.
Group 4, acute restraint sleeping+high-dose of compound NRB181 group, 8 mice. The mice were fasted and deprived of water during the acute restraint period, and were kept normally at other times.
19.3.1 Preparation of placebo one day before the experiment: 0.5% CMC sodium+1% Tween80+saline.
On the day before the experiment, a high-dose solution of compound NRB181 was prepared: 6 mg of NRB181 was weighed and dissolved in 2.4 mL of placebo to prepare a 2.5 mg/mL solution of NRB181. Sonicated for 10 minutes and stored at 4° C. for later use.
The day before the experiment, a moderate-dose solution of compound NRB181 was prepared: […] of the above high-dose solution was taken and added to a 2 mL placebo centrifuge tube, mixed well, a 0.5 mg/mL NRB181 solution was prepared, sonicated for 10 minutes, and stored at 4° C. for later use. […]

In the case of `C[C@H](NC(=O)CNC(=O)c1cc(Cl)ccn1)c1c(F)cccc1F` [NRB181], the “sleep time of pentobarbital sodium anesthetized mice” value was “significantly increased”.
